For the data set the following is noted: Liquid; for mass density: 298.15 K, 101.33 kPa, Vibrating tube method.

± gives the expanded uncertainty stated by the source.

Turning to `Cc1ccccc1C` [1,2-dimethylbenzene], the mass density came out at 875.81 ± 0.16 kg/m3 and the Normal boiling temperature came out at 144.40 ± 0.5 °C.
Consider `Cc1cccc(C)c1` [1,3-dimethylbenzene], for which the mass density is listed as 860.06 ± 0.16 kg/m3 and the Normal boiling temperature is 139.13 ± 0.5 °C.
Consider `Cc1ccc(C)cc1` [1,4-dimethylbenzene], for which the mass density worked out at 856.54 ± 0.16 kg/m3 and the Normal boiling temperature stood at 138.28 ± 0.5 °C.
Consider `CCC(C)CO` (stereo not given) [2-methyl-1-butanol], for which the mass density turned out to be 814.83 ± 0.17 kg/m3 and the Normal boiling temperature amounted to 128.76 ± 0.5 °C.
In the case of `CCc1ccccc1` [ethylbenzene], the mass density was determined as 862.57 ± 0.16 kg/m3 and the Normal boiling temperature was determined as 136.16 ± 0.5 °C.
